Test results reported in paper PMC9329325, “Design, synthesis, in vitro biological assessment and molecular modeling insights for novel 3-(naphthalen-1-yl)-4,5-dihydropyrazoles as anticancer agents with potential EGFR inhibitory activity” (Scientific Reports, 2022).

Tests used:
MDA-MB-231 = assay: MTT anti-proliferative assay, MDA-MB-231; format: cell-based, human; details: mean ± S.D. of 3 separate experiments
Protocol: (§1) The cytotoxic effects of herein prepared pyrazole- thiazol-4-one hybrids 9a-p against BC MDA-MB-231 and T-47D cell lines, obtained from American Type Culture Collection (ATCC), were determined using the MTT assay protocol. It is worth to mention that the selected cancer cell lines in this study are EGFR-expressing cell lines[25]–[28]. Doxorubicin and Erolitinib were utilized as positive control (Table 1).
(§2) All the biological assays conducted in this study were performed as reported earlier; MTT cytotoxicity[31],[32] cell cycle, Annexin V-FITC Apoptosis[34]–[36] and EGFR kinase[37] assays, (Supplementary Materials).
(§3) 1. Anti-proliferative activity
(§4) The two examined breast cancer cell lines (MDA-MB-231 and T-47D) as well as the normal breast MCF-10A cells have been obtained from American Type Culture Collection (ATCC). Cells lines were maintained as monolayers in Dulbecco’s Modified Eagle’s Medium (DMEM) supplemented with 10% FBS, 2 mM L-glutamine, 100 U/ml penicillin and 100µg/ml streptomycin sulfate. Cells were sub-cultured with trypsine /EDTA solution, counted with haemocytometer and plated onto 96-well plates (5000 cells/well) and left overnight to form a semi-confluent monolayer.
(§5) Cell monolayers were treated in quadrates with vehicle (DMSO, 0.1% v/v), test samples (thiazolyl-pyrazolines 9a-p) or Doxorubicin as positive control for an exposure time of 48 h. At the end of exposure, MTT solution in PBS (5 mg/ml) was then added to all well including no cell blank and left to incubate for 90 min. The formation of formazan crystals were visually confirmed using phase contract microscopy. DMSO (100 µl/well) was added to dissolve the formazan crystals with shaking for 10 min after which the absorbance was read at 590 nm against no cell blanks on a FLuo Star Optima microplate reader (BMG technologies, Germany). Cell proliferation was calculated comparing the OD values of the DMSO control wells and those of the samples represented as % proliferation to the control. Dose-response experiment was performed on samples producing > or =50% loss of cell proliferation using five serial 2-fold dilutions (50, 25, 12.5, 6.25 and 3.125 µM) of the sample. IC50 values (concentration of sample causing 50% loss of cell proliferation of the vehicle control) were calculated using non-linear regression curve fitting of the dose response plots on GraphPad Prism V.6.0 software. […]

T-47D = assay: MTT anti-proliferative assay, T-47D; format: cell-based, human; details: 48 h exposure, mean ± S.D. of 3 separate experiments
Protocol: as §1, §2, §3, §4, §5

MCF-10A = assay: MTT cytotoxicity toward normal breast MCF-10A cells; format: cell-based; details: Homo sapiens, 48 h exposure, mean ± S.D. of 3 separate experiments
Protocol: as §2, §3, §4, §5

MDA-MB-231 cells [1] = assay: Cell cycle analysis by PI flow cytometry; format: cell-based, human; details: at IC50 concentration (9g 0.62 µM, 9k 1.14 µM), 24 h; for %Sub-G1: control 2.13%; for %S: control 32.11%
Protocol: All the biological assays conducted in this study were performed as reported earlier; MTT cytotoxicity[31],[32] cell cycle, Annexin V-FITC Apoptosis[34]–[36] and EGFR kinase[37] assays, (Supplementary Materials). […]
The two examined breast cancer cell lines (MDA-MB-231 and T-47D) as well as the normal breast MCF-10A cells have been obtained from American Type Culture Collection (ATCC). Cells lines were maintained as monolayers in Dulbecco’s Modified Eagle’s Medium (DMEM) supplemented with 10% FBS, 2 mM L-glutamine, 100 U/ml penicillin and 100µg/ml streptomycin […]
sulfate. […]
Breast cancer MDA-MB-231 cells were treated with compounds 9g and 9k for 24 h (at their IC50 concentration), and then cells were washed twice with ice-cold phosphate buffered saline (PBS). Subsequently, the treated cells were collected by centrifugation, fixed in ice-cold 70% (v/v) ethanol, washed with PBS, re-suspended with 100 μg/mL RNase, stained with 40 μg/mL PI, and analyzed by flow cytometry using FACS Calibur (Becton Dickinson, BD, Franklin Lakes, NJ, USA). The cell cycle distributions were calculated using CellQuest software 5.1 (Becton

MDA-MB-231 cells [2] = assay: Annexin V-FITC/PI apoptosis assay; format: cell-based, human; details: at IC50 concentration (9g 0.62 µM, 9k 1.14 µM), 48 h; for Late apoptosis (upper right %): control 0.21%; for Early apoptosis (lower right %): control 0.73%; for Total apoptosis (L.R % + U.R %): control 0.94%
Protocol: as §2
3. Annexin V-FITC Apoptosis Assay
Phosphatidylserine externalization was assayed using Annexin V-FITC/PI apoptosis detection kit (BD Biosciences, USA) according to the manufacturer’s instructions. Breast cancer MDA-MB-231 cells were cultured to a monolayer then treated with compounds 9g and 9k at their IC50 concentration. Briefly, cells were then harvested via trypsinization, and rinsed twice in PBS followed by binding buffer. Moreover, cells were re-suspended in 100 μL of binding buffer with the addition of 1 μL of FITC-Annexin V followed by an incubation period of 30 min at 4 °C. Cells were then rinsed in binding buffer and resuspended in 150 μL of binding buffer with the addition

EGFR = EGFR (Homo sapiens, UniProt P00533); assay: EGFR kinase inhibitory activity (ADP-Glo Kinase Assay)
Sequence of EGFR (P00533 25-1210): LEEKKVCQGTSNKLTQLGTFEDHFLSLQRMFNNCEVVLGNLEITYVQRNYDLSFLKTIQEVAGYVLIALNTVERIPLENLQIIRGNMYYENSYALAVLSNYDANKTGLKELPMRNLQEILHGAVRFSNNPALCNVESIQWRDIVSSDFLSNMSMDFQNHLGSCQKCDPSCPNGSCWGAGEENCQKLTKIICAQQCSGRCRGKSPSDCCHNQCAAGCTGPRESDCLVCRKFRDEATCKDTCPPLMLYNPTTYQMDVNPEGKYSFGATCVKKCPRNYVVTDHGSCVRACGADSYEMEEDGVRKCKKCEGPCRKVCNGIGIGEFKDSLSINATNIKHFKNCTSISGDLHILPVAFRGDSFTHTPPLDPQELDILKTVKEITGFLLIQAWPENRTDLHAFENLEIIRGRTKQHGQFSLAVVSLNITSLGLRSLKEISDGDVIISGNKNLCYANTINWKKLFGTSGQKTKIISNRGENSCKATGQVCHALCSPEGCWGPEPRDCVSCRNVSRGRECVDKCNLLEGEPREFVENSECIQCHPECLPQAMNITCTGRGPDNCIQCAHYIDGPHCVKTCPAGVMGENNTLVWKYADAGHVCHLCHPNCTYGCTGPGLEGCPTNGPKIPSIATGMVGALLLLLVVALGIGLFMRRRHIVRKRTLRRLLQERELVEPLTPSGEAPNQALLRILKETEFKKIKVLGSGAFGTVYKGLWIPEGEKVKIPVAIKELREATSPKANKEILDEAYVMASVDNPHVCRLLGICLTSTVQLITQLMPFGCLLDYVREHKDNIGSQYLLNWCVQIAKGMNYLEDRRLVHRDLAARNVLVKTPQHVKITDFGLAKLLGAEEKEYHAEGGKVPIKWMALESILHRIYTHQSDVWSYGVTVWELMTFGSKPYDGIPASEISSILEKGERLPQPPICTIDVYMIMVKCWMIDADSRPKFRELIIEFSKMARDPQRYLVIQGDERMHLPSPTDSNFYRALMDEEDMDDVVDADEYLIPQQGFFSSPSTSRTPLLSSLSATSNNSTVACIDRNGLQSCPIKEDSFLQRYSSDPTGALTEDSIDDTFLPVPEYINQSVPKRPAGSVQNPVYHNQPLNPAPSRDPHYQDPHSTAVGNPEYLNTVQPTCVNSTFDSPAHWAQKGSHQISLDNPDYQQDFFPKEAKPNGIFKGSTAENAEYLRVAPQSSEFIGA
Protocol: Cells were then analyzed using the flow cytometer BD FACS Canto II and the results were interpreted with FlowJo7.6.4 software (Tree Star, Ashland, OR, 4. EGFR Kinase Inhibitory Activity
ADP-Glo™ Kinase Assay (Promega, Catalogue No. V3831) which is a luminescent kinase assay that measures ADP formed from a kinase reaction. ADP is converted into ATP which is converted into light by Ultra‐Glo™ Luciferase. The luminescent signal positively correlates with ADP amount and kinase activity.
Protocol: first dilute enzyme, substrate, ATP and inhibitors in Tyrosine Kinase Buffer (40 mM Tris,7.5; 20 mM MgCl2; 0.1 mg/ml BSA (bovine serum albumin); 2 mM MnCl2; 50μM DTT),
and 2 μl of substrate/ATP mix. Incubate at room temperature for 60 minutes, add 5 μl of ADP‐ Glo™ Reagent, incubate at room temperature for 40 minutes, add 10 μl of Kinase Detection reagent, incubate at room temperature for 30 minutes and finally record luminescence (Integration time 0.5‐1second).

[3] = Homo sapiens, MDA-MB-231, 48 h, 48 h exposure

Row | Structure (SMILES) | IC50 (MDA-MB-231; [3]) [µM] | IC50 (T-47D; Homo sapiens, T47D, 48 h) [µM] | IC50 (MCF-10A) [µM] | also measured
1 | O=C1N=C(N2N=C(c3cccc4ccccc34)CC2c2ccc(F)cc2)S/C1=C/c1ccccc1 (stereo not shown) [Compound 9a] | 19.8 ± 1.08 | > 100 | – | IC50 (T-47D): > 100 µM; IC50 T-47D (T-47D): inactive
2 | COc1ccccc1/C=C1/SC(N2N=C(c3cccc4ccccc34)CC2c2ccc(F)cc2)=NC1=O (stereo not shown) [Compound 9d] | 45 ± 2.45 | > 100 | – | IC50 (T-47D): > 100 µM; IC50 T-47D (T-47D): inactive
3 | COc1ccc(/C=C2/SC(N3N=C(c4cccc5ccccc45)CC3c3ccc(Cl)cc3)=NC2=O)cc1O (stereo not shown) [Compound 9o] | 10.8 ± 0.59 | 7.36 ± 0.3 | – | –
4 | O=C1N=C(N2N=C(c3cccc4ccccc34)CC2c2ccc(Cl)cc2)S/C1=C/c1ccccc1 (stereo not shown) [Compound 9i] | 24.7 ± 1.35 | > 100 | – | IC50 (T-47D): > 100 µM; IC50 T-47D (T-47D): inactive
5 | COc1cc(/C=C2/SC(N3N=C(c4cccc5ccccc45)CC3c3ccc(F)cc3)=NC2=O)ccc1O (stereo not shown) [Compound 9h] | < 10 | 11.4 ± 0.67 | 79.5 ± 5.27 | IC50 (MDA-MB-231; 48 h exposure): 5.82 ± 0.317 µM
6 | COc1cccc(/C=C2/SC(N3N=C(c4cccc5ccccc45)CC3c3ccc(Cl)cc3)=NC2=O)c1O (stereo not shown) [Compound 9n] | 35.1 ± 1.92 | 67.3 ± 2.51 | – | –
7 | COc1ccc(/C=C2/SC(N3N=C(c4cccc5ccccc45)CC3c3ccc(Cl)cc3)=NC2=O)cc1 (stereo not shown) [Compound 9m] | 18.9 ± 1.03 | 27.6 ± 1.24 | – | –
8 | O=C1N=C(N2N=C(c3cccc4ccccc34)CC2c2ccc(Cl)cc2)S/C1=C/c1ccc(O)cc1 (stereo not shown) [Compound 9j] | < 10 | 35.1 ± 2.04 | 65.4 ± 5.04 | IC50 (MDA-MB-231; 48 h exposure): 6.24 ± 0.34 µM
9 | COc1cccc(/C=C2/SC(N3N=C(c4cccc5ccccc45)CC3c3ccc(F)cc3)=NC2=O)c1O (stereo not shown) [Compound 9f] | – | 27.1 ± 1.08 | 42.6 ± 2.81 | –
10 | CN(C)c1ccc(C=C2SC(N3N=C(c4cccc5ccccc45)CC3c3ccc(Cl)cc3)=NC2=O)cc1 (stereo not shown) [Compound 9k] | – | 4.92 ± 0.28 | 58.5 ± 4.36 | %Sub-G1 (MDA-MB-231 cells [1]): 27.86%; %S (MDA-MB-231 cells [1]): 28.45%; %G0-G1 (MDA-MB-231 cells [1]; control 53.45%): 40.61%; Late apoptosis (upper right %) (MDA-MB-231 cells [2]): 20%; Early apoptosis (lower right %) (MDA-MB-231 cells [2]): 14.22%; Total apoptosis (L.R % + U.R %) (MDA-MB-231 cells [2]): 34.22%; IC50 (EGFR): 395 ± 17 nM
11 | CN(C)c1ccc(/C=C2/SC(N3N=C(c4cccc5ccccc45)CC3c3ccc(F)cc3)=NC2=O)cc1 (stereo not shown) [Compound 9c] | – | 8.45 ± 0.27 | 47 ± 3.52 | –
12 | C#Cc1cccc(Nc2ncnc3cc(OCCOC)c(OCCOC)cc23)c1 [Erlotinib, reference compound] | – | – | – | IC50 (MDA-MB-231; Homo sapiens, MDA-MB-231, 48 h exposure): 2.88 ± 0.17 µM; IC50 (T-47D; Homo sapiens, T47D): 3.61 ± 0.24 µM
13 | COc1ccccc1/C=C1/SC(N2N=C(c3cccc4ccccc34)CC2c2ccc(Cl)cc2)=NC1=O (stereo not shown) [Compound 9l] | 58 ± 3.16 | > 100 | – | IC50 (T-47D): > 100 µM; IC50 T-47D (T-47D): inactive
14 | COc1cccc2c1C(=O)c1c(O)c3c(c(O)c1C2=O)C[C@@](O)(C(=O)CO)C[C@@H]3O[C@H]1C[C@H](N)[C@H](O)[C@H](C)O1 [Doxorubicin, reference compound] | 3.67 ± 0.2 | 2.73 ± 0.09 | – | –
15 | O=C1N=C(N2N=C(c3cccc4ccccc34)CC2c2ccc(F)cc2)S/C1=C/c1ccc(O)cc1 (stereo not shown) [Compound 9b] | 12.2 ± 0.67 | 18.6 ± 0.87 | – | –
16 | COc1cc(/C=C2/SC(N3N=C(c4cccc5ccccc45)CC3c3ccc(Cl)cc3)=NC2=O)ccc1O (stereo not shown) [Compound 9p] | 10.8 ± 0.59 | 19.5 ± 0.92 | 83.6 ± 6.74 | IC50 (MDA-MB-231; 48 h exposure): 6.55 ± 0.357 µM
17 | COc1ccc(/C=C2/SC(N3N=C(c4cccc5ccccc45)CC3c3ccc(F)cc3)=NC2=O)cc1 (stereo not shown) [Compound 9e] | 14.1 ± 0.77 | 12.4 ± 0.33 | – | –
18 | COc1ccc(C=C2SC(N3N=C(c4cccc5ccccc45)CC3c3ccc(F)cc3)=NC2=O)cc1O (stereo not shown) [Compound 9g] | – | 3.14 ± 0.11 | 31.7 ± 3.1 | %Sub-G1 (MDA-MB-231 cells [1]): 31.05%; %G2/M (MDA-MB-231 cells [1]; control 12.31%): 2%; %S (MDA-MB-231 cells [1]): 35.43%; Late apoptosis (upper right %) (MDA-MB-231 cells [2]): 23.93%; Early apoptosis (lower right %) (MDA-MB-231 cells [2]): 8.39%; Total apoptosis (L.R % + U.R %) (MDA-MB-231 cells [2]): 32.32%; IC50 (EGFR): 267 ± 12 nM
